Measurements reported in ChEMBL document CHEMBL1201862, “PubChem BioAssay data set” (2004).
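Results reflect a 48-hour exposure of cells in 96-well plates to compound at five concentrations. At the GI50, growth is halved.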 Calls of active or inactive are those of the source. No stated cut-off is given here; in the data, active = GI50 up to about 1.1 µM and inactive = higher.

Assays:
Test in all cases: NCI anticancer screen, dose series, 48 h
OVCAR-4 = system: OVCAR-4
COLO 205 = system: COLO 205
TK-10 = system: TK-10
NCI-H226 = system: NCI-H226
U-251 = system: U-251
SF-268 = system: SF-268
EKVX = system: EKVX
K562 = system: K562
OVCAR-8 = system: OVCAR-8
SK-MEL-2 = system: SK-MEL-2
SK-OV-3 = system: SK-OV-3
HCC 2998 = system: HCC 2998
A498 = system: A498
OVCAR-5 = system: OVCAR-5
SK-MEL-5 = system: SK-MEL-5
A549 = system: A549
SN12C = system: SN12C
OVCAR-3 = system: OVCAR-3
HOP-62 = system: HOP-62
PC-3 = system: PC-3

| SMILES | GI50 (OVCAR-4) | GI50 (COLO 205) | GI50 (TK-10) | GI50 (NCI-H226) | GI50 (U-251) | GI50 (SF-268) | GI50 (EKVX) | GI50 (K562) | GI50 (OVCAR-8) | GI50 (SK-MEL-2) | GI50 (SK-OV-3) | GI50 (HCC 2998) | GI50 (A498) | GI50 (OVCAR-5) | GI50 (SK-MEL-5) | GI50 (A549) | GI50 (SN12C) | GI50 (OVCAR-3) | GI50 (HOP-62) | GI50 (PC-3) |
| --- | --- | --- | --- | --- | --- | --- | --- | --- | --- | --- | --- | --- | --- | --- | --- | --- | --- | --- | --- | --- |
| COc1ccc(CC(COS(=O)(=O)c2ccc(C)cc2)NS(=O)(=O)c2ccc(C)cc2)cc1 (stereo not given) | 20.7 µM (inactive) | 11.7 µM (inactive) | 17.4 µM (inactive) | 7.4 µM (inactive) | 11.8 µM (inactive) | 12.2 µM (inactive) | 14.6 µM (inactive) | 43.2 µM (inactive) | 15.3 µM (inactive) | 15.1 µM (inactive) | 15.2 µM (inactive) | 11.9 µM (inactive) | 12.8 µM (inactive) | 17.5 µM (inactive) | 9.02 µM (inactive) | 12.1 µM (inactive) | 15.4 µM (inactive) | 9.55 µM (inactive) | 16.7 µM (inactive) | 14.8 µM (inactive) |
| COc1ccc2c(C)c(Oc3c(Cl)c(Cl)c(O)c(C#N)c3C#N)oc2c1 | > 100 µM (inactive) | > 100 µM (inactive) | > 100 µM (inactive) | > 100 µM (inactive) | > 100 µM (inactive) | > 100 µM (inactive) | > 100 µM (inactive) | > 100 µM (inactive) | > 100 µM (inactive) | > 100 µM (inactive) | > 100 µM (inactive) | > 100 µM (inactive) | > 100 µM (inactive) | > 100 µM (inactive) | > 100 µM (inactive) | > 100 µM (inactive) | > 100 µM (inactive) | > 100 µM (inactive) | > 100 µM (inactive) | > 100 µM (inactive) |
| CN1C(=O)c2ccccc2OC12C=Cc1ccc(O)cc1O2 (stereo not given) | 28.1 µM (inactive) | 22.2 µM (inactive) | 26.8 µM (inactive) | 23.2 µM (inactive) | 24.8 µM (inactive) | 26.9 µM (inactive) | 18.6 µM (inactive) | 24.1 µM (inactive) | 12.7 µM (inactive) | 20.6 µM (inactive) | 19.5 µM (inactive) | 18.9 µM (inactive) | 18.4 µM (inactive) | 20.7 µM (inactive) | 17.3 µM (inactive) | 30.8 µM (inactive) | 26.7 µM (inactive) | 17.1 µM (inactive) | 13.3 µM (inactive) | 21.3 µM (inactive) |
| C=CCN1CN(C2CCCCC2)CSC1=S | 12.8 µM (inactive) | 3.32 µM (inactive) | 3.69 µM (inactive) | 14.6 µM (inactive) | 3.59 µM (inactive) | 2.32 µM (inactive) | 15.6 µM (inactive) | 0.652 µM (active) | 4.06 µM (inactive) | 8.18 µM (inactive) | 14.4 µM (inactive) | 8.17 µM (inactive) | 14.3 µM (inactive) | 9.08 µM (inactive) | 2.68 µM (inactive) | 16.5 µM (inactive) | 6.84 µM (inactive) | 7.01 µM (inactive) | 5.57 µM (inactive) | 5.02 µM (inactive) |
| Cc1ccc(C(=O)Nc2ccc(CP(=O)(O)O)cc2)cc1NC(=O)c1cccc(N)c1 | > 100 µM (inactive) | > 100 µM (inactive) | > 100 µM (inactive) | > 100 µM (inactive) | > 100 µM (inactive) | > 100 µM (inactive) | > 100 µM (inactive) | > 100 µM (inactive) | > 100 µM (inactive) | > 100 µM (inactive) | > 100 µM (inactive) | > 100 µM (inactive) | > 100 µM (inactive) | > 100 µM (inactive) | > 100 µM (inactive) | > 100 µM (inactive) | > 100 µM (inactive) | > 100 µM (inactive) | > 100 µM (inactive) | > 100 µM (inactive) |
